Test results taken from patent US20060148732A1, “Inhibition of NF-kappaB by triterpene compositions” (priority 2000, published 2006).

Tests used:
SKH-1 hairless mice = test: UVB-induced skin lesions; format: in vivo, mouse; conditions: UVB-irradiated SKH-1 mice; topical, 15 min before UVB
Method: In the study, SKH-1 hairless mice are irradiated with UVB radiation at the dose of 1.8 kJ/m^2 for up to 15 min. Mice are pretreated with two different doses of F035 of (2 mg and 4 mg per dose) as well as negative controls (F060 or acetone alone). It is believed a minimum of 10 mice per group are needed to obtain statistically meaningful results. […] The studies are conducted for a short period of time to evaluate the preventive effect of the compounds. It is not expected to see visible tumors, even with UVB alone, only skin lesions within the specified time-frame. A slight erythema (minor redness of the skin) may be observed, which should disappear the next day after irradiation.
The UV apparatus used has eight Westinghouse FS40 sunlamps, an IL-1400A radiometer/photometer, and an attached IL-1403 UVB phototherapy radiometer with a SEL 240/UVB-1/TD detector. The middle part has several chambers, each holding an individual mouse. There are holes inside the chambers for proper ventilation while mice are being irradiated. The chambers rotate in circular motion during irradiation so each mouse is exposed to UVB light uniformly. […] The amount of the UVB exposure will be measured with a UVB radiometer. […]
Methods. […] The relative efficacy of the treatment was evaluated utilizing endpoints of epidermal thickness, leukocyte invasion, labeling (with BrdU) index, p53 mutations and 8-OH-dG formation. […]

PARP in Jurkat cells = test: Immunoblot analysis of PARP degradation; format: cell-based, human
Method: Apoptosis induced by F035 & D1 was examined by proteolytic cleavage of poly (ADP-ribose) polymerase (PARP). Jurkat cells (2×10^6/ml) were treated with F035 (2 μg/ml) and D1 (2 μg/ml) for different lengths of time. Cell lysates were prepared in buffer containing 20 mM HEPES, 250 mM NaCl, 2 mM EDTA, 0.1% NP-40, 2 μg/ml leupeptin, 2 μg/ml aprotinin, 0.5 μg/ml benzamidine, 1 mM DTT and 1 mM PMSF. Cellular proteins (60 μg/ml) were separated on a 7.5% SDS polyacrylamide gel and electrotransferred onto a nitrocellulose membrane. The membrane was probed first with monclonal anti-PARP antibody (PharMingen) and then with anti-mouse antibody conjugated to horse radish peroxidase (HRPO). Protein bands were detected by chemiluminescense (ECL, Amersham). The extent of cleavage of the 116-kDa PARP into 85-kDa and 41-kDa peptide products was used as a measure of apoptosis (Tewari et al., 1995).
Immunoblot Analysis of PARP Degradation. Induction of apoptosis was also examined by proteolytic cleavage of PARP (Nicholson and Thornberry, 1997). Jurkat cells (3×10^6) were treated with 2 μg/ml of F094, avicin D, or avicin G at 37° C. Cell lysates were prepared in a buffer containing 20 mM HEPES, 250 mM NaCl, 2 mM EDTA, 0.1% NP-40, 2 μg/ml leupeptin, 2 μg/ml aprotinin, 0.5 μg/ml benzamidine, 1 mM DTT, and 1 mM PMSF. Cellular proteins (60 μg/ml) were separated on a 7.5% SDS polyacrylamide gel and electrotransferred onto a nitrocellulose membrane. The membrane was probed first with monoclonal anti-PARP antibody (Pharmingen) and then with anti-mouse antibody conjugated to horseradish peroxidase (HRPO). Protein bands were detected by chemiluminescence (ECL). The appearance of an 85 kDa cleavage product was used as a measure of apoptosis.

[1] = test system: mitochondrial fraction of Jurkat cells; test: Cytochrome c release in a cell free system; format: biochemical, human; conditions: isolated mitochondria; 25 μM pretreatment
Method: Isolation of the Submitochondrial Fraction. Jurkat cells (1.5-2.0×10^7) were suspended in 1 ml sucrose buffer (250 mM sucrose in 30 mM Tris-HCl pH 7.4) and transferred into an N2 cavitation chamber (PARR Instruments Company, Moline, Ill.). The cells were subjected to N2 cavitation (300 psi for 5 min) as per the manufacturer's instructions. Under these conditions most of the cell membrane was disrupted with no change in the mitochondrial respiratory activity. Next, DNA and the nuclear fraction were removed by centrifugation (1500 g, 30 sec). The supernatant was further centrifuged (16000 g, 10 min) and the pellet was used as the submitochondrial fraction.
To observe if monoterpene/triterpenoid saponins directly affected mitochondria to induce apoptosis, experiments were carried out using avicin G in a cell free system. Mitochondria were isolated from Jurkat cells by the N2 cavitation method.

Substance | decrease in number of cycling cells (BrdU labeling) (SKH-1 hairless mice) | effect on cleavage of PARP induced by F094 or avicins (PARP in Jurkat cells; 100 μM pretreatment 1 hour) | effect on F035 induced cleavage of PARP (PARP in Jurkat cells; 100 μM pretreatment for 1 h) | effect on avicin G induced cytochrome c release [1]
Vitamin E | 30% | – | – | –
z-Val-Ala-Asp-CH2F [z-vad fmk, reference compound] | – | totally blocked the cleavage of PARP | completely reversed | did not affect the release of cytochrome c
